From the NIST ThermoML archive (doi:10.1021/je200721d)

Experiment: xn = mol fraction of the nth substance listed
Conditions: Liquid, Vibrating tube method

CCCCCCCC [octane] + CCCCCC
Conditions	mass density [kg/m3]
342.93 K, 1000 kPa, x2 = 0.5749	640.49
342.93 K, 2000 kPa, x2 = 0.5749	641.81
342.93 K, 3000 kPa, x2 = 0.5749	643.05
342.93 K, 4000 kPa, x2 = 0.5749	644.29
342.93 K, 5000 kPa, x2 = 0.5749	645.58
342.93 K, 6000 kPa, x2 = 0.5749	646.83
342.93 K, 7000 kPa, x2 = 0.5749	648.05
342.93 K, 8000 kPa, x2 = 0.5749	649.28
342.93 K, 9000 kPa, x2 = 0.5749	650.49
342.93 K, 10000 kPa, x2 = 0.5749	651.67
342.93 K, 11000 kPa, x2 = 0.5749	652.87
342.93 K, 12000 kPa, x2 = 0.5749	654.03
342.93 K, 13000 kPa, x2 = 0.5749	655.19
342.93 K, 14000 kPa, x2 = 0.5749	656.31
342.93 K, 15000 kPa, x2 = 0.5749	657.42
342.93 K, 16000 kPa, x2 = 0.5749	658.5
342.93 K, 17000 kPa, x2 = 0.5749	659.57
342.93 K, 18000 kPa, x2 = 0.5749	660.6
342.93 K, 19000 kPa, x2 = 0.5749	661.62
342.93 K, 20000 kPa, x2 = 0.5749	662.6
342.93 K, 21000 kPa, x2 = 0.5749	663.59
342.93 K, 22000 kPa, x2 = 0.5749	664.52
342.93 K, 23000 kPa, x2 = 0.5749	665.48
342.93 K, 24000 kPa, x2 = 0.5749	666.39
342.93 K, 25000 kPa, x2 = 0.5749	667.28
342.94 K, 1000 kPa, x2 = 0.2199	655.33
342.94 K, 2000 kPa, x2 = 0.2199	656.52
342.94 K, 3000 kPa, x2 = 0.2199	657.67
342.94 K, 4000 kPa, x2 = 0.2199	658.87
342.94 K, 5000 kPa, x2 = 0.2199	660.02
342.94 K, 6000 kPa, x2 = 0.2199	661.18
342.94 K, 7000 kPa, x2 = 0.2199	662.34
342.94 K, 8000 kPa, x2 = 0.2199	663.49
342.94 K, 9000 kPa, x2 = 0.2199	664.6
342.94 K, 10000 kPa, x2 = 0.2199	665.73
342.94 K, 11000 kPa, x2 = 0.2199	666.84
342.94 K, 12000 kPa, x2 = 0.2199	667.93
342.94 K, 13000 kPa, x2 = 0.2199	669.01
342.94 K, 14000 kPa, x2 = 0.2199	670.06
342.94 K, 15000 kPa, x2 = 0.2199	671.09
342.94 K, 16000 kPa, x2 = 0.2199	672.1
342.94 K, 17000 kPa, x2 = 0.2199	673.1
342.94 K, 18000 kPa, x2 = 0.2199	674.07
342.94 K, 19000 kPa, x2 = 0.2199	675.02
342.94 K, 20000 kPa, x2 = 0.2199	675.95
342.94 K, 21000 kPa, x2 = 0.2199	676.87
